Reference: publication PMC6042085 (Proceedings of the National Academy of Sciences of the …, 2018)

Target: T1, PriSLX (Saccharolobus solfataricus, UniProt Q97Z83+Q97ZS7)
T1 sequence (Q97Z83 1-330): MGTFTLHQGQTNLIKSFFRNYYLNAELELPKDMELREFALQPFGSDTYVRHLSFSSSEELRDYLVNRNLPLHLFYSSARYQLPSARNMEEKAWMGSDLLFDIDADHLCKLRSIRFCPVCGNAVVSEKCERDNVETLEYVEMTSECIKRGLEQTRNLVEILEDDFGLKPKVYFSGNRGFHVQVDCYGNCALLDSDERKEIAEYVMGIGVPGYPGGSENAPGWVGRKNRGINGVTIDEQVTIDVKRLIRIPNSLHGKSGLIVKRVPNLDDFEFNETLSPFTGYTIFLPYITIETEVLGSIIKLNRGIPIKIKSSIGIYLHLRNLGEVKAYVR
T1 sequence (Q97ZS7 1-154): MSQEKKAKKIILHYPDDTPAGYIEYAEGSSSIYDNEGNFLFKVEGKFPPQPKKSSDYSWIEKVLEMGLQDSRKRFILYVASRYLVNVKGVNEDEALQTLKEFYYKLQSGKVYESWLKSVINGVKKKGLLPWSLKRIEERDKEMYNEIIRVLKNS
T1 sequence (Q9UWW1 1-307 partner): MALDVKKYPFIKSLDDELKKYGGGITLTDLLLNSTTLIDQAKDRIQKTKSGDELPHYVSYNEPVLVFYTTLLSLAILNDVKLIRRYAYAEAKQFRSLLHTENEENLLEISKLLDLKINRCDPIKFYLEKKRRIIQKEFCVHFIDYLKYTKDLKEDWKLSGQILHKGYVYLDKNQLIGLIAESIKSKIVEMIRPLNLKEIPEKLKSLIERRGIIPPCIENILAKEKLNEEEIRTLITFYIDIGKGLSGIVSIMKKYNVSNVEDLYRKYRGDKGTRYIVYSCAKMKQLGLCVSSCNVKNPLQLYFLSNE
Assay: primer synthesis, […]-labelled nucleotide, gel
Type: biochemical
Conditions: poly(dT) template; pH 6.0, 10 mM MnCl2, 10 µM ZnCl2, 75 °C

## Nc1ncnc2c1ncn2[C@H]1C[C@H](O)[C@@H](COP(=O)(O)OP(=O)(O)OP(=O)(O)O)O1 [dATP]
  primer synthesis, 32P-labelled nucleotide, gel: reactions with solely dATP as substrate primarily generate a lower yield
